Measurements from patent US20220040129A1, “TREATMENT OF HYPERAMMONEMIA IN PATIENTS WITH RENAL INSUFFICIENCY” (RECORDATI S.p.A., priority 2019, published 2022).
Where two headings read alike, the source gives them in different places.

Key:
plasma NH3 = conditions: cited from earlier work
CYP1A2 = target: T1, CYP1A2 (Homo sapiens, UniProt P05177); assay type: in vitro ADME
T1 sequence (P05177 1-516): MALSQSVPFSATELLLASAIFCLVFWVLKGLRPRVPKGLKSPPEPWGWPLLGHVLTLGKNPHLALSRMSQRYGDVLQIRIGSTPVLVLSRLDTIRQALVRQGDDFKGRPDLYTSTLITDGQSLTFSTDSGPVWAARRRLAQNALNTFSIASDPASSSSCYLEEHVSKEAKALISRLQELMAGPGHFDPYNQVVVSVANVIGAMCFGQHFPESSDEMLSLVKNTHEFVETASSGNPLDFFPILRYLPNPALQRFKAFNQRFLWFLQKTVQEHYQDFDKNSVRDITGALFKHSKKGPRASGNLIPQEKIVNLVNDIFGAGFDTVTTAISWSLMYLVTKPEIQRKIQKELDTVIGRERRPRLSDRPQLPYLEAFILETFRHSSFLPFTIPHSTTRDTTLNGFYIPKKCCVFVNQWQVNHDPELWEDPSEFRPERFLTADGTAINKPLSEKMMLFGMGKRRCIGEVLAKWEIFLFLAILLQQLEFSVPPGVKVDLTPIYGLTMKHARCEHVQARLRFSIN

[1] = in most cases, carglumic acid alone, 13 episodes
[2] = second block headed All (N = 5), First 24 hrs
[3] = second block headed All (N = 5), First 48 hrs

## NC(=O)N[C@@H](CCC(=O)O)C(=O)O [carglumic acid, N-carbamoyl-L-glutamic acid]
Plasma NH3; All episodes, First 24 hrs
  Plasma NH3 level, Mean (SD): 94.6 (47.6) micromol/L
  Plasma NH3 level, Median: 100.0 µmol/L
  Plasma NH3 level, Min-Max: 43.3 to 187.9 µmol/L
  Plasma NH3 level, Q1-Q3: 50.0 to 110.5 µmol/L
Plasma NH3; All episodes, First 48 hrs
  Plasma NH3 level, Mean (SD): 80.5 (43.4) micromol/L
  Plasma NH3 level, Median: 66.0 µmol/L
  Plasma NH3 level, Min-Max: 32.0 to 187.9 µmol/L
  Plasma NH3 level, Q1-Q3: 50.0 to 100.0 µmol/L
Plasma NH3; Non-Neonates, First 24 hrs
  Plasma NH3 level, Mean (SD): 106.1 (56.6) micromol/L
  Plasma NH3 level, Median: 100.0 µmol/L
  Plasma NH3 level, Min-Max: 47.6 to 187.9 µmol/L
  Plasma NH3 level, Q1-Q3: 50.0 to 170.0 µmol/L
Plasma NH3; Non-Neonates, First 48 hrs
  Plasma NH3 level, Mean (SD): 81.8 (52.2) micromol/L
  Plasma NH3 level, Median: 58.0 µmol/L
  Plasma NH3 level, Min-Max: 32.0 to 187.9 µmol/L
  Plasma NH3 level, Q1-Q3: 48.8 to 110.5 µmol/L
Plasma NH3; [1]
  Time within which a marked reduction in plasma NH3 levels was observed: ≤ 6 h
  Time within which plasma NH3 values were normalized: ≤ 30 h
Plasma NH3; [2]
  Plasma NH3 level, Mean (SD): 78.5 (29.6) micromol/L
  Plasma NH3 level, Median: 100.0 µmol/L
  Plasma NH3 level, Min-Max: 42.3 to 100.0 µmol/L
  Plasma NH3 level, Q1-Q3: 50.0 to 100.0 µmol/L
Plasma NH3; [3]
  Plasma NH3 level, Mean (SD): 78.5 (29.6) micromol/L
  Plasma NH3 level, Median: 100.0 µmol/L
  Plasma NH3 level, Min-Max: 42.3 to 100.0 µmol/L
  Plasma NH3 level, Q1-Q3: 50.0 to 100.0 µmol/L
CYP1A2
  Inhibition of CYP1A2: not an inhibitor
